The test concerns 299254-011-R-J1-PDC complex spheroid viability. As to the kind of experiment: Anticancer human tumor 299254-011-R-J1-PDC patient-derived melanoma cell line growth inhibition [POLQ]. The conditions noted are these: for viability, T/C: stronger effect = lower value. In a few lines: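 Three-cell-type spheroids modelling solid tumor plus stroma served as the readout system; POL inhibitors were tested individually and in combination, concentration ranges set by clinical Cmax where known.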

The mark [1] stands for this setting: curve of first compound, second compound 0.0316 µM.
The mark [2] stands for this setting: curve of first compound, second compound 0.1 µM.
[3] abbreviates: curve of first compound, second compound 0.316 µM.
[4] abbreviates: curve of first compound, second compound 1 µM.
Where [5] appears, read: curve of first compound, second compound 3.16 µM.
[6] abbreviates: curve of first compound, second compound 10 µM.
Where [7] appears, read: second compound 0.0316 µM, first compound 0.0316 µM.
Setting [8] is: second compound 0.0316 µM, first compound 0.1 µM.
Setting [9] is: second compound 0.0316 µM, first compound 0.316 µM.
[10] abbreviates: second compound 0.0316 µM, first compound 1 µM.
Where [11] appears, read: second compound 0.1 µM, first compound 0.0316 µM.
Setting [12] is: second compound 0.1 µM, first compound 0.1 µM.
[13] abbreviates: second compound 0.1 µM, first compound 0.316 µM.
[14] abbreviates: second compound 0.1 µM, first compound 1 µM.
The mark [15] stands for this setting: second compound 0.316 µM, first compound 0.0316 µM.
Where [16] appears, read: second compound 0.316 µM, first compound 0.1 µM.
[17] abbreviates: second compound 0.316 µM, first compound 0.316 µM.
[18] abbreviates: second compound 0.316 µM, first compound 1 µM.
[19] abbreviates: second compound 1 µM, first compound 0.0316 µM.
The mark [20] stands for this setting: second compound 1 µM, first compound 0.1 µM.
[21] abbreviates: second compound 1 µM, first compound 0.316 µM.
The mark [22] stands for this setting: second compound 1 µM, first compound 1 µM.
Where [23] appears, read: second compound 3.16 µM, first compound 0.0316 µM.
Setting [24] is: second compound 3.16 µM, first compound 0.1 µM.
The mark [25] stands for this setting: second compound 3.16 µM, first compound 0.316 µM.
[26] abbreviates: second compound 3.16 µM, first compound 1 µM.
The mark [27] stands for this setting: second compound 10 µM, first compound 0.0316 µM.
Where [28] appears, read: second compound 10 µM, first compound 0.1 µM.
The mark [29] stands for this setting: second compound 10 µM, first compound 0.316 µM.
The mark [30] stands for this setting: second compound 10 µM, first compound 1 µM.
The mark [31] stands for this setting: second compound 0.0316 µM, first compound 3.16 µM.
The mark [32] stands for this setting: second compound 0.0316 µM, first compound 10 µM.
The mark [33] stands for this setting: second compound 0.1 µM, first compound 3.16 µM.
[34] abbreviates: second compound 0.1 µM, first compound 10 µM.
[35] abbreviates: second compound 0.316 µM, first compound 3.16 µM.
Setting [36] is: second compound 0.316 µM, first compound 10 µM.
Where [37] appears, read: second compound 1 µM, first compound 3.16 µM.
Setting [38] is: second compound 1 µM, first compound 10 µM.
[39] abbreviates: second compound 3.16 µM, first compound 3.16 µM.
[40] abbreviates: second compound 3.16 µM, first compound 10 µM.
[41] abbreviates: second compound 10 µM, first compound 3.16 µM.
Setting [42] is: second compound 10 µM, first compound 10 µM.

Values joined by “and” are separate entries in the source; they are usually repeats but may differ in a detail not shown here. Equal values may be shown once. A value given as a limit tells only on which side of the number the result lay.

Broadly, the IC50 is the point on the concentration scale where inhibition reaches its midpoint. Broadly, the viability, T/C is the ratio of treated to control.
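Also: spheroids exposed to drugs for one week before measurement.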
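For viability, T/C in this document: percent viability relative to DMSO vehicle control taken as 100%.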

As for `COc1cccc(OCCCN)c1-c1cc(Nc2cnc(C#N)cn2)n[nH]1` + Nc1ccc(C#CCN(C(=O)Cc2ncc(C(F)(F)F)cc2C(F)(F)F)c2ccc(F)cc2)nn1, the IC50 reads like this: under setting [1], 147 nM; under setting [2], 97.4 nM; under setting [3], 96.8 nM; under setting [4], 79.5 nM; under setting [5], 70.6 nM; under setting [6], 29.4 nM. Besides, the viability, T/C is 96.7% (second compound 0.0316 µM, first compound 0.00316 µM); 129% (second compound 0.0316 µM, first compound 0.01 µM); 78.6% under setting [7]; 61.2% under setting [8]; 40.2% under setting [9]; 42.6% under setting [10]. The viability, T/C reads like this: (second compound 0.1 µM, first compound 0.00316 µM) 106%; (second compound 0.1 µM, first compound 0.01 µM) 107%; under setting [11], 84.9%; under setting [12], 49.2%; under setting [13], 51.6%; under setting [14], 42.3%. Further, the viability, T/C is, setting by setting: (second compound 0.316 µM, first compound 0.00316 µM) 111%; (second compound 0.316 µM, first compound 0.01 µM) 97.5%; under setting [15], 67%; under setting [16], 51.8%; under setting [17], 40%; under setting [18], 35.5%. The viability, T/C is 98.3% (second compound 1 µM, first compound 0.00316 µM); 111% (second compound 1 µM, first compound 0.01 µM); 72.2% under setting [19]; 51.6% under setting [20]; 41.8% under setting [21]; 37.2% under setting [22]. The viability, T/C was 115% (second compound 3.16 µM, first compound 0.00316 µM); 79.6% (second compound 3.16 µM, first compound 0.01 µM); 63.9% under setting [23]; 41.7% under setting [24]; 37% under setting [25]; 46.6% under setting [26]. Moreover, the viability, T/C is, setting by setting: (second compound 10 µM, first compound 0.00316 µM) 121%; (second compound 10 µM, first compound 0.01 µM) 75.1%; under setting [27], 48.9%; under setting [28], 38%; under setting [29], 32.3%; under setting [30], 35.7%.

Turning to `COc1cc2cc(C(=O)CCC(=O)O)sc2cc1OC`, the viability, T/C (compound 0.0316 µM) is 107% and 89.4% and 110%; the viability, T/C (compound 0.1 µM) is 94.7% and 99.2% and 93.1%; the viability, T/C (compound 0.316 µM) is 106% and 87.4% and 93.6%; the viability, T/C (compound 1 µM) was 103% and 100% and 97.2%; the viability, T/C (compound 3.16 µM) was 113% and 103% and 108%; the viability, T/C (compound 10 µM) is 103% and 104% and 101%. Besides, the IC50 (curve of compound) is greater than 10000 nM.

For `COc1cccc2c1C(=O)c1c(O)c3c(c(O)c1C2=O)CC(O)(C(=O)CO)CC3OC1CC(N)C(O)C(C)O1` (centres undefined), the viability, T/C was 83.7% and 89.6% and 90% (compound 0.0316 µM); 80.1% and 91.1% and 93.3% (compound 0.1 µM); 69.1% and 73.4% and 55.2% (compound 0.316 µM); 59% and 60.7% and 46% (compound 1 µM); 9.86% and 15.5% and 12% (compound 3.16 µM); 0.74% and 1.67% and 3.35% (compound 10 µM). Also, for the setting “curve of compound”, the IC50 is 1190 nM and 1200 nM and 612 nM.

For `COc1cc2cc(C(=O)CCC(=O)O)sc2cc1OC` + Cc1cccc(N(C)C(=O)C2C(O)CCN2c2nc(C)cc(C(F)(F)F)c2C#N)c1, the IC50 by setting is: under setting [1], greater than 10000 nM; under setting [2], greater than 10000 nM; under setting [3], greater than 10000 nM; under setting [4], greater than 10000 nM; under setting [5], greater than 10000 nM; under setting [6], greater than 10000 nM. Further, the viability, T/C is, setting by setting: under setting [7], 105%; under setting [8], 102%; under setting [9], 96.3%; under setting [10], 113%; under setting [31], 111%; under setting [32], 109%. The viability, T/C is, setting by setting: under setting [11], 98.6%; under setting [12], 96%; under setting [13], 104%; under setting [14], 101%; under setting [33], 106%; under setting [34], 101%. Further, the viability, T/C is, setting by setting: under setting [15], 102%; under setting [16], 115%; under setting [17], 99.9%; under setting [18], 110%; under setting [35], 113%; under setting [36], 104%. Further, the viability, T/C by setting is: under setting [19], 105%; under setting [20], 109%; under setting [21], 105%; under setting [22], 112%; under setting [37], 110%; under setting [38], 103%. Besides, the viability, T/C under setting [23] is 105%; the viability, T/C under setting [24] was 116%; the viability, T/C under setting [25] was 109%; the viability, T/C under setting [26] was 95%; the viability, T/C under setting [39] was 96.1%; the viability, T/C under setting [40] was 97.4%. Further, the viability, T/C is 102% under setting [27]; 95.5% under setting [28]; 103% under setting [29]; 102% under setting [30]; 102% under setting [41]; 101% under setting [42].

For the compound `COc1cc(C2c3cc4c(cc3C(OC3OC5COC(C)OC5C(O)C3O)C3COC(=O)C23)OCO4)cc(OC)c1O` (centres undefined) + Cc1cccc(N(C)C(=O)C2C(O)CCN2c2nc(C)cc(C(F)(F)F)c2C#N)c1, the IC50 is 9540 nM under setting [1]; greater than 10000 nM under setting [2]; greater than 10000 nM under setting [3]; greater than 10000 nM under setting [4]; greater than 10000 nM under setting [5]; greater than 10000 nM under setting [6]. Further, the viability, T/C under setting [7] was 87.6%; the viability, T/C under setting [8] is 89.2%; the viability, T/C under setting [9] was 102%; the viability, T/C under setting [10] is 86.8%; the viability, T/C under setting [31] is 75.6%; the viability, T/C under setting [32] was 48.9%. The viability, T/C is 98% under setting [11]; 91.9% under setting [12]; 107% under setting [13]; 87.2% under setting [14]; 68% under setting [33]; 54.8% under setting [34]. Further, the viability, T/C reads like this: under setting [15], 94.6%; under setting [16], 102%; under setting [17], 101%; under setting [18], 99.5%; under setting [35], 70%; under setting [36], 59.5%. Also, the viability, T/C is 107% under setting [19]; 93.1% under setting [20]; 91.6% under setting [21]; 79.2% under setting [22]; 76% under setting [37]; 58% under setting [38]. The viability, T/C is 98.5% under setting [23]; 86.5% under setting [24]; 88% under setting [25]; 97.3% under setting [26]; 74.8% under setting [39]; 53.9% under setting [40]. Moreover, the viability, T/C under setting [27] is 84.5%; the viability, T/C under setting [28] was 86.7%; the viability, T/C under setting [29] was 86.1%; the viability, T/C under setting [30] was 82.8%; the viability, T/C under setting [41] is 60.2%; the viability, T/C under setting [42] is 59.2%.

Consider `COc1cc(C2c3cc4c(cc3C(OC3OC5COC(C)OC5C(O)C3O)C3COC(=O)C23)OCO4)cc(OC)c1O` (centres undefined), for which the viability, T/C reads like this: (compound 0.0316 µM) 101% and 98.9% and 106%; (compound 0.1 µM) 103% and 106% and 84.8%; (compound 0.316 µM) 93.5% and 92.1% and 111%; (compound 1 µM) 87.4% and 91.4% and 94.4%; (compound 3.16 µM) 67.7% and 73.7% and 72.5%; (compound 10 µM) 53.7% and 56.4% and 62.8%. Also, the IC50 (curve of compound) was greater than 10000 nM.

For `Nc1ccn(C2OC(CO)C(O)C2(F)F)c(=O)n1` (centres undefined), the viability, T/C reads like this: (compound 0.0316 µM) 73.4% and 61.2% and 61%; (compound 0.1 µM) 37.7% and 47.8% and 35.1%; (compound 0.316 µM) 42.1% and 40.7% and 40.9%; (compound 1 µM) 40.9% and 50.7% and 30.8%; (compound 3.16 µM) 37.9% and 48.4% and 41.9%; (compound 10 µM) 41.2% and 42.5% and 33.8%. Moreover, the IC50 (curve of compound) is 70.8 nM and 78.8 nM and 53 nM.

The values above are taken from PubChem BioAssay AID1963849 (Molecular Pharmacology Branch, DTP, NCI, 2024).
